Tests used:
[1] = Plasma clearance in rat; format: ADME, organism-based
[2] = target: T1, Tyrosine-protein kinase JAK2 (Homo sapiens, UniProt O60674); experiment: Inhibition of recombinant Jak2 (unknown origin) using biotinylated synthetic peptide substrate by homogeneous time resolved fluorescence assay
[3] = target: T1, Tyrosine-protein kinase JAK2; experiment: Inhibition of Jak2 (unknown origin) assessed as inhibition of STAT5 phosphorylation by cell-based assay
Mus musculus = experiment: Inhibition of Jak2 (unknown origin) in po dosed […] mouse assessed as inhibition of STAT5 phosphorylation measured after 1 to 8 hrs of dosing by PK/PD assay; format: functional, organism-based
Rattus norvegicus = species on record: Rattus norvegicus; experiment: Unbound clearance in rat; format: ADME, organism-based; conditions: in vivo
[4] = Plasma protein binding in rat; format: ADME, cell-free; conditions: read-out: PPB (converted)
[5] = Volume of distribution in rat; format: ADME, organism-based; conditions: in vivo
[6] = Half life in rat; format: ADME, organism-based; conditions: in vivo
[7] = Mus musculus, C56bl/6, read-out: IC50

T1 sequence (O60674 whole entry): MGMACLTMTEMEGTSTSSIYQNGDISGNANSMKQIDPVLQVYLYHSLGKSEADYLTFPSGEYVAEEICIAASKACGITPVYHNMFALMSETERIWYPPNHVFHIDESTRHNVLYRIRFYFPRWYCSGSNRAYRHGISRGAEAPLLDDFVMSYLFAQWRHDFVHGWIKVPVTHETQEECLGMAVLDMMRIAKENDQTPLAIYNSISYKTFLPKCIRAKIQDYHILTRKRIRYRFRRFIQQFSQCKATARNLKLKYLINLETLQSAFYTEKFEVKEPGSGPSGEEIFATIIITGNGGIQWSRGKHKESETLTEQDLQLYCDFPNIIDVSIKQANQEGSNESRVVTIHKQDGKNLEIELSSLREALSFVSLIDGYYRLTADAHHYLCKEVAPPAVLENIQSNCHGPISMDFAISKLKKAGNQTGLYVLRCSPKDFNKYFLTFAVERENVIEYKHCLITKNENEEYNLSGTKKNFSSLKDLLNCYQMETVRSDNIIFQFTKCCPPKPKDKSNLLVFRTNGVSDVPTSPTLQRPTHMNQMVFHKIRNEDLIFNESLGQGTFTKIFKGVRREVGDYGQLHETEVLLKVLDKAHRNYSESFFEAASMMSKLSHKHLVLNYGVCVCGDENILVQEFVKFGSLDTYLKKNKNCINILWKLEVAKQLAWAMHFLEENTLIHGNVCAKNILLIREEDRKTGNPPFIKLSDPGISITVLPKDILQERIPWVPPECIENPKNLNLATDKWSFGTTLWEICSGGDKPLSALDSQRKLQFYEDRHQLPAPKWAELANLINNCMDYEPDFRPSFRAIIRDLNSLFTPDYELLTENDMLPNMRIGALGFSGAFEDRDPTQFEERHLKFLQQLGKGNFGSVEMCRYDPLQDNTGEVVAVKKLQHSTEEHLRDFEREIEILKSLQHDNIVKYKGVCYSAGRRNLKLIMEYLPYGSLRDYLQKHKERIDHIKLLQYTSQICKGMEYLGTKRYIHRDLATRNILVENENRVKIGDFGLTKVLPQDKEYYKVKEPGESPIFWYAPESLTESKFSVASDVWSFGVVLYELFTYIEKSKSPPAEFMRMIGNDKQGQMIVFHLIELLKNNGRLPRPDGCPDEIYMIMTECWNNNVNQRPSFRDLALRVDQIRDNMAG

Structure (SMILES): CC(C)[C@@H](Nc1nc2cc[nH]c(=O)c2c2cnccc12)C(F)(F)F
- clearance [1]: 68 mL/min/kg

Structure (SMILES): O=c1[nH]ccc2c(NC3CC3)nc3ccc(F)cc3c12
- IC50 [2]: 200 nM

Structure (SMILES): O=c1[nH]ccc2nc(NC3CC3)c3ccc(F)cc3c12
- IC50 [2]: 100 nM

Structure (SMILES): O=c1[nH]ccc2c(Nc3c(F)cc(F)cc3F)nc3ccncc3c12
- IC50 [3]: 90 nM
- IC50 [2]: 7 nM

Structure (SMILES): O=c1[nH]ccc2c(Nc3c(Cl)cc(F)cc3Cl)nc3ccncc3c12
- IC50 [3]: 14 nM
- IC50 [2]: 0.8 nM

Structure (SMILES): O=c1[nH]ccc2c(Nc3c(Cl)cncc3Cl)nc3ccncc3c12
- IC50 [3]: 24 nM
- IC50 [2]: 2 nM

Structure (SMILES): O=c1[nH]ccc2c(Nc3c(Cl)cc(OC(F)(F)F)cc3Cl)nc3ccncc3c12
- IC50 [3]: 140 nM
- IC50 [2]: 3 nM

Structure (SMILES): O=c1[nH]ccc2c(Nc3c(Cl)cc(C(F)(F)F)cc3Cl)nc3ccncc3c12
- IC50 [3]: 49 nM
- IC50 [2]: 1 nM

Structure (SMILES): O=c1[nH]ccc2c(Nc3c(F)cccc3C(F)(F)F)nc3ccncc3c12
- IC50 [3]: 90 nM
- IC50 [2]: 9 nM

Structure (SMILES): CC(O)c1cc(Cl)c(Nc2nc3ccncc3c3c(=O)[nH]ccc23)c(Cl)c1 (stereo not drawn)
- clearance [1]: 54 mL/min/kg
- IC50 [3]: 12 nM
- IC50 (Mus musculus; [7]): 400 nM
- IC50 [2]: 0.6 nM
- CL (Rattus norvegicus): 1125 mL/min/kg
- fraction unbound [4]: 0.048

Structure (SMILES): CC(C)(O)c1cc(Cl)c(Nc2nc3ccncc3c3c(=O)[nH]ccc23)c(Cl)c1
- clearance [1]: 29 mL/min/kg
- IC50 [3]: 18 nM
- IC50 (Mus musculus; [7]): 1200 nM
- IC50 [2]: 0.5 nM
- CL (Rattus norvegicus): 1115 mL/min/kg
- fraction unbound [4]: 0.026

Structure (SMILES): O=c1[nH]ccc2c(Nc3c(Cl)cc(-c4ccn[nH]4)cc3Cl)nc3ccncc3c12
- clearance [1]: 10 mL/min/kg
- IC50 [3]: 37 nM
- IC50 (Mus musculus): Not Active
- IC50 [2]: 1 nM
- CL (Rattus norvegicus): 10000 mL/min/kg
- fraction unbound [4]: 0.001

Structure (SMILES): O=c1[nH]ccc2c(Nc3c(Cl)cc(C(O)C(F)F)cc3Cl)nc3ccncc3c12 (stereo not drawn)
- clearance [1]: 16 mL/min/kg
- IC50 [3]: 26 nM
- IC50 (Mus musculus; [7]): 1300 nM
- IC50 [2]: 0.2 nM
- CL (Rattus norvegicus): 571 mL/min/kg
- fraction unbound [4]: 0.028

Structure (SMILES): NS(=O)(=O)c1cc(Cl)c(Nc2nc3ccncc3c3c(=O)[nH]ccc23)c(Cl)c1
- clearance [1]: 50 mL/min/kg
- IC50 [3]: 113 nM
- IC50 (Mus musculus): Not Active
- IC50 [2]: 0.15 nM

Structure (SMILES): CC(C)[C@H](Nc1nc2ccncc2c2c(=O)[nH]ccc12)C(F)(F)F
- IC50 [3]: 170 nM
- IC50 [2]: 10 nM

Structure (SMILES): O=c1[nH]ccc2c(Nc3c(F)cc(F)cc3Cl)nc3ccncc3c12
- clearance [1]: 41 mL/min/kg
- IC50 [3]: 15 nM
- IC50 (Mus musculus; [7]): 2300 nM
- IC50 [2]: 0.9 nM
- CL (Rattus norvegicus): 875 mL/min/kg
- fraction unbound [4]: 0.048
- Vd [5]: 2.6 L/kg
- half-life [6]: 48 min
